Measured values reported in patent US10336762B2 (priority 2017, dated 2019).

Tests used:
TNFα = experiment: cells; type: cell-based, human; conditions: Homo sapiens, Monocyte, LPS-stimulated human monocytes, TNFα content; read-out: EC50 TNF
IRAK4 enzyme = IRAK4 enzyme (Homo sapiens (Human), UniProt Q9NWZ3); experiment: biochemical; type: biochemical; conditions: IRAK4 enzyme, TR-FRET, 500 μM ATP
Chain of IRAK4 enzyme (Q9NWZ3 whole entry): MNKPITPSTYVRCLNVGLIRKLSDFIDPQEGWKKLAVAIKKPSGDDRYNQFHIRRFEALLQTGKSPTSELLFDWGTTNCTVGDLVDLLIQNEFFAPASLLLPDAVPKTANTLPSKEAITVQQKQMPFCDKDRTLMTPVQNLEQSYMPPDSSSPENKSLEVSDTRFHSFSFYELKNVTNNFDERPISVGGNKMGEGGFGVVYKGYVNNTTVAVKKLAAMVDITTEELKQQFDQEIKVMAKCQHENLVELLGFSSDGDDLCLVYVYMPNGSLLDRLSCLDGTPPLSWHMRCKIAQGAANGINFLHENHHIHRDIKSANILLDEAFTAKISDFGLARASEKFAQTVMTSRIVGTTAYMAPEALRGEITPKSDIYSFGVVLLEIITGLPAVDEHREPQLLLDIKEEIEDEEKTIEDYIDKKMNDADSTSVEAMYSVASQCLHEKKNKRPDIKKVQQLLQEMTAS

Row | Structure (SMILES) | EC50 (TNFα) [nM] | IC50 (IRAK4 enzyme) [nM]
1 | N#Cc1cnn2c(-c3cc(NC45CCC(O)(CC4)CC5)c(C(=O)NCCC4CCCO4)cn3)ccc2c1 (stereo not shown) [Example 346, 6-(3-cyanopyrrolo[1,2-b]pyridazin-7-yl)-4-((4-hydroxybicyclo[2.2.2]octan-1-yl)amino)-N-(2-(tetrahydrofuran-2-yl)ethyl)nicotinamide] | 18 | 1
2 | CC(C)(CCNC(=O)c1cnc(-c2ccc3cc(C#N)cnn23)cc1NC12CCC(O)(CC1)CC2)NC(=O)OC(C)(C)C [Example 347, tert-butyl (4-(6-(3-cyanopyrrolo[1,2-b]pyridazin-7-yl)-4-((4-hydroxybicyclo[2.2.2]octan-1-yl)amino)nicotinamido)-2-methyl-butan-2-yl)carbamate] | 45 | 2
3 | N#CCNC(=O)c1cnc(-c2ccc3cc(C#N)cnn23)cc1NC12CCC(O)(CC1)CC2 [Example 348, N-(cyanomethyl)-6-(3-cyanopyrrolo[1,2-b]pyridazin-7-yl)-4-((4-hydroxybicyclo[2.2.2]octan-1-yl)amino) nicotinamide] | 19 | < 1
4 | CC(C)(O)[C@H](F)CNC(=O)c1cnc(-c2ccc3cc(C#N)cnn23)cc1Nc1ccc(C(=O)N2CCC2)cc1 [Example 349, (R)-4-((4-(azetidine-1-carbonyl)phenyl)amino)-6-(3-cyanopyrrolo[1,2-b]pyridazin-7-yl)-N-(2-fluoro-3-hydroxy-3-methylbutyl)nicotinamide] | 77 | 1
5 | CNC(=O)c1ccc(Nc2cc(-c3ccc4cc(C#N)cnn34)ncc2C(=O)NC[C@@H](F)C(C)(C)O)cc1 [Example 350, (R)-6-(3-cyanopyrrolo[1,2-b]pyridazin-7-yl)-N-(2-fluoro-3-hydroxy-3-methylbutyl)-4-((4-(methylcarbamoyl)phenyl)amino)nicotinamide] | 12 | < 1
6 | CNC(=O)O[C@H]1C[C@@H](Nc2cc(-c3ccc4cc(C#N)cnn34)ncc2C(=O)NC[C@@H](F)C(C)(C)O)C1 [Example 351, (1S,3S)-3-((2-(3-cyanopyrrolo[1,2-b]pyridazin-7-yl)-5-(((R)-2-fluoro-3-hydroxy-3-methylbutyl)carbamoyl)pyridin-4-yl)amino)cyclobutyl methylcarbamate] | 120 | 2
7 | N#CCCNC(=O)c1cnc(-c2ccc3cc(C#N)cnn23)cc1NC12CCC(O)(CC1)CC2 [Example 352, N-(2-cyanoethyl)-6-(3-cyanopyrrolo[1,2-b]pyridazin-7-yl)-4-((4-hydroxybicyclo[2.2.2]octan-1-yl)amino) nicotinamide] | 76 | 1
8 | CC(C)(F)[C@H](F)CNC(=O)c1cnc(-c2ccc3cc(C#N)cnn23)cc1NC12CCC(O)(CC1)CC2 [Example 353, (R)-6-(3-cyanopyrrolo[1,2-b]pyridazin-7-yl)-N-(2,3-difluoro-3-methylbutyl)-4-((4-hydroxybicyclo[2.2.2]octan-1-yl)amino) nicotinamide] | 16 | < 1
9 | COC(C)(C)[C@H](F)CNC(=O)c1cnc(-c2ccc3cc(C#N)cnn23)cc1NC12CCC(O)(CC1)CC2 [Example 354, (R)-6-(3-cyanopyrrolo[1,2-b]pyridazin-7-yl)-N-(2-fluoro-3-methoxy-3-methylbutyl)-4-((4-hydroxybicyclo[2.2.2]octan-1-yl)amino) nicotinamide] | 19 | < 1
10 | CC(C)(O)CCNC(=O)c1cnc(-c2ccc3cc(C#N)cnn23)cc1NC12CCC(O)(CC1)CC2 [Example 355, 6-(3-cyanopyrrolo[1,2-b]pyridazin-7-yl)-N-(3-hydroxy-3-methylbutyl)-4-((4-hydroxy-bicyclo[2.2.2]octan-1-yl)amino)nicotinamide] | 23 | < 1
11 | CNC(=O)O[C@H]1C[C@@](C)(Nc2cc(-c3ccc4cc(C#N)cnn34)ncc2C(=O)NC[C@@H](F)C(C)(C)O)C1 [Example 356] | 800 | 6
12 | CC(C)(C)NC(=O)c1cnc(-c2ccc3cc(C#N)cnn23)cc1NC12CCC(O)(CC1)CC2 [Example 357, N-(tert-butyl)-6-(3-cyano-pyrrolo[1,2-b]pyridazin-7-yl)-4-((4-hydroxy-bicyclo[2.2.2]octan-1-yl)amino)nicotinamide] | 413 | 9
13 | [2H]C([2H])([2H])NC(=O)c1cnc(-c2ccc3cc(C#N)cnn23)cc1NC12CCC(O)(CC1)CC2 [Example 358, 6-(3-cyanopyrrolo[1,2-b]pyridazin-7-yl)-4-((4-hydroxybicyclo[2.2.2]octan-1-yl)amino)-N-(methyl-d3)nicotinamide] | 122 | 3
14 | CC(C)(O)[C@H](F)CNC(=O)c1cnc(-c2ccc3cc(C#N)cnn23)cc1Nc1nc(-c2ccc(Oc3ccccc3)cc2)cs1 [Example 359, (R)-6-(3-cyanopyrrolo[1,2-b]pyridazin-7-yl)-N-(2-fluoro-3-hydroxy-3-methylbutyl)-4-((4-(4-phenoxyphenyl)thiazol-2-yl)amino)nicotinamide] | > 10000 | 614
15 | CC(C)(C)c1cc(Nc2cc(-c3ccc4cc(C#N)cnn34)ncc2C(=O)NC[C@@H](F)C(C)(C)O)on1 [Example 360, (R)-4-((3-(tert-butyl)isoxazol-5-yl)amino)-6-(3-cyanopyrrolo[1,2-b]pyridazin-7-yl)-N-(2-fluoro-3-hydroxy-3-methyl-butyl)nicotinamide] | > 10000 | 2
16 | CNC(=O)c1cnc(-c2ccc3cc(C#N)cnn23)cc1NC12CCC(O)(CC1)CC2 [Example 361, 6-(3-cyanopyrrolo[1,2-b]pyridazin-7-yl)-4-((4-hydroxybicyclo[2.2.2]octan-1-yl)amino)-N-methylnicotinamide] | 50 | 1
17 | CNC(=O)[C@H]1CC[C@@H](Nc2cc(-c3ccc4cc(C#N)cnn34)ncc2C(=O)NC[C@@H](F)C(C)(C)O)CC1 [Example 362, 6-(3-cyanopyrrolo[1,2-b]pyridazin-7-yl)-N-((R)-2-fluoro-3-hydroxy-3-methylbutyl)-4-(((1s,4S)-4-(methylcarbamoyl)cyclo-hexyl)amino)nicotinamide] | 1430 | 9
18 | CC(C)(O)[C@H](F)CNC(=O)c1cnc(-c2ccc3cc(C#N)cnn23)cc1Nc1nc(-c2ccccc2)cs1 [Example 363, (R)-6-(3-cyanopyrrolo[1,2-b]pyridazin-7-yl)-N-(2-fluoro-3-hydroxy-3-methylbutyl)-4-((4-phenyl-thiazol-2-yl)amino) nicotinamide] | 328 | 5
19 | Cc1ccc(-c2cc(Nc3cc(-c4ccc5cc(C#N)cnn45)ncc3C(=O)NC[C@@H](F)C(C)(C)O)n(-c3ccccc3)n2)cc1 [Example 364, (R)-6-(3-cyanopyrrolo[1,2-b]pyridazin-7-yl)-N-(2-fluoro-3-hydroxy-3-methylbutyl)-4-((1-phenyl-3-(p-tolyl)-1H-pyrazol-5-yl)amino)nicotinamide] | > 10000 | 1000
20 | CC(C)(O)[C@H](F)CNC(=O)c1cnc(-c2ccc3cc(C#N)cnn23)cc1Nc1sc2c(c1C(N)=O)CCCC2 [Example 365, (R)-4-((3-carbamoyl-4,5,6,7-tetrahydrobenzo[b]thiophen-2-yl)amino)-6-(3-cyanopyrrolo[1,2-b]pyridazin-7-yl)-N-(2-fluoro-3-hydroxy-3-methylbutyl)nicotinamide] | 415 | 4
